Results published in ChEMBL document CHEMBL1250518, “Nonsteroidal dissociated glucocorticoid agonists containing azaindoles as steroid A-ring mimetics” (J Med Chem, 2010).

Key:
[1] = system: Mus musculus; assay: Toxicity in collagen and Freund's complete adjuvant-induced B10.RIII mouse arthritis model assessed as increase of body fat content at 30 mg/kg, po qd for 5 weeks; type: organism-based; design: dose 30 mg/kg, route oral; details: in vivo, 840 h
[2] = system: Rattus norvegicus; assay: AUC (infinity) in Sprague-Dawley rat at 30 mg/kg, po; type: ADME, organism-based, Plasma; design: time infinity, dose 30 mg/kg, route oral; details: in vivo
[3] = system: Mus musculus; assay: Toxicity in B10.RIII mouse assessed as increase of body fat content at 30 mg/kg, po qd for 5 weeks; type: organism-based; design: dose 30 mg/kg, route oral; details: in vivo, 840 h
[4] = system: Mus musculus; assay: Toxicity in collagen and Freund's complete adjuvant-induced B10.RIII mouse arthritis model assessed as increase of free fatty acids level at 30 mg/kg, po qd for 5 weeks; type: organism-based; design: dose 30 mg/kg, route oral; details: in vivo, 840 h
[5] = target: T1, Glucocorticoid receptor (Homo sapiens, UniProt P04150); assay: Transactivation activity at glucocorticoid receptor in HFF assessed as induction of aromatase activity after 18 to 24 hrs by ELISA; type: cell-based
T1 sequence (P04150 whole entry): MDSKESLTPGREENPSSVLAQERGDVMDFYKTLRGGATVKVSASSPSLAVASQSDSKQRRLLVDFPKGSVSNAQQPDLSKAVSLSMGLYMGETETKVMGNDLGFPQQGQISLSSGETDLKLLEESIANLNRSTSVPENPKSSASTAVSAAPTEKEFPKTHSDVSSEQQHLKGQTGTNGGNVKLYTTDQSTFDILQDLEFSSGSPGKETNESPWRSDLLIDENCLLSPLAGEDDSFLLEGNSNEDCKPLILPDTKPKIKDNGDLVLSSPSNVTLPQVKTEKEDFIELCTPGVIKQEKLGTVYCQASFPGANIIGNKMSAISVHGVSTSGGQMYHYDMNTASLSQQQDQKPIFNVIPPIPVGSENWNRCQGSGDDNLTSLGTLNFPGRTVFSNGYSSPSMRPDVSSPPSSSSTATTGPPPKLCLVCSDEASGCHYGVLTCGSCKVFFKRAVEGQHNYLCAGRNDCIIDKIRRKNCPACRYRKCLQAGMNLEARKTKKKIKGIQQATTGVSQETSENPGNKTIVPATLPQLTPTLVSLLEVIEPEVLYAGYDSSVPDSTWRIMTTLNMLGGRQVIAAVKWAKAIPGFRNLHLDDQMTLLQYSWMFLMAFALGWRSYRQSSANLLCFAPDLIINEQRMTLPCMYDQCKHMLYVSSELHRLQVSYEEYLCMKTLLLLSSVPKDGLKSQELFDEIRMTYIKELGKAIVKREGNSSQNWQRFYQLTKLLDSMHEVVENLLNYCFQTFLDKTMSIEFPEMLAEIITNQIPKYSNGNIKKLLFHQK

[6] = system: Mus musculus; assay: Toxicity in B10.RIII mouse assessed as increase of serum insulin level at 30 mg/kg, po qd for 5 weeks; type: organism-based; design: dose 30 mg/kg, route oral; details: in vivo, 840 h
[7] = system: Mus musculus; assay: Toxicity in collagen and Freund's complete adjuvant-induced B10.RIII mouse arthritis model assessed as increase of serum insulin level at 30 mg/kg, po qd for 5 weeks; type: organism-based; design: dose 30 mg/kg, route oral; details: in vivo, 840 h
[8] = Volume of distribution at steady state in Sprague-Dawley rat at 5 mg/kg, iv; type: ADME, organism-based; design: dose 5 mg/kg, route intravenous; details: in vivo, read-out: Vdss
[9] = target: T1, Glucocorticoid receptor; assay: Transactivation activity at glucocorticoid receptor in human HeLa cells transfected with luciferase gene linked to MMTV promoter by luciferase assay; type: cell-based
[10] = Cmax in Sprague-Dawley rat at 30 mg/kg, po; type: ADME, organism-based; design: dose 30 mg/kg, route oral; details: in vivo
[11] = target: T2, Mineralocorticoid receptor (Homo sapiens, UniProt P08235); assay: Binding affinity to mineralocorticoid receptor expressed in baculovirus-infected insect cells using tetramethylrhodamine labeled Dexamethasone by fluorescence polarization microplate assay
T2 sequence (P08235 whole entry): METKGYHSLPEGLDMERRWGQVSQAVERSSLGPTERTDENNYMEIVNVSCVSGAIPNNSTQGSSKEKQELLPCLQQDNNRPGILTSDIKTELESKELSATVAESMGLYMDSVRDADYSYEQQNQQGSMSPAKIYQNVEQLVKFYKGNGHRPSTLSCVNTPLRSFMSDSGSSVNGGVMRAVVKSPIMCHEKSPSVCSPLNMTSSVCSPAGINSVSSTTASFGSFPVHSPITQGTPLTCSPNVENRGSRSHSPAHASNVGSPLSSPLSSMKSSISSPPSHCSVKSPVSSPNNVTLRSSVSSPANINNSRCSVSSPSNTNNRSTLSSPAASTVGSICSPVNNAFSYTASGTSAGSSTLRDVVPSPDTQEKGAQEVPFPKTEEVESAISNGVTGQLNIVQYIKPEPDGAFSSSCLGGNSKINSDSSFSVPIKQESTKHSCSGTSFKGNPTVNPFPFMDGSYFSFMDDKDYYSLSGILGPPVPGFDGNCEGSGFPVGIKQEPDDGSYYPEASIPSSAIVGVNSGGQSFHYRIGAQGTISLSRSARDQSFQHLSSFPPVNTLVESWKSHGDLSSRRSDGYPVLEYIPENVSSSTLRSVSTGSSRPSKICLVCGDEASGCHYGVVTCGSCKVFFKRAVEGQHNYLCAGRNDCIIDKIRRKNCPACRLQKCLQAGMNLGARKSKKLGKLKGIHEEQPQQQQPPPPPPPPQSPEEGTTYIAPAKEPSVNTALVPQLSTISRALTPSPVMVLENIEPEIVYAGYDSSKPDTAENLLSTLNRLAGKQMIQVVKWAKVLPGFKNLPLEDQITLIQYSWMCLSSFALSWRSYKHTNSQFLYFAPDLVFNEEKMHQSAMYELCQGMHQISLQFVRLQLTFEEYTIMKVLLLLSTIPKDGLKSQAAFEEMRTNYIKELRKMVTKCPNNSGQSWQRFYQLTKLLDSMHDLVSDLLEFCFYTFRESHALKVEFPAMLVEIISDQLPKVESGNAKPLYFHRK

AUC [2]: 2236 ng·h/mL
EC50 [5]: 30 nM
Vd [8]: 7.6 L/kg
IC50 [9]: 80 nM
Cmax [10]: 444 ng/mL
IC50 [11]: 210 nM
Compound: CC(C)(C[C@@](O)(Cc1cc2ccncc2[nH]1)C(F)(F)F)c1cc(F)ccc1O
Activity [1]: Toxic
Activity [3]: Non-toxic
Activity [4]: Non-toxic
Activity [6]: Non-toxic
Activity [7]: Toxic
